Results taken from patent EP0187956A2, “Pharmaceutical composition for the treatment of defects of the gastrointestinal mucous membrane” (BOEHRINGER INGELHEIM KG, priority 1984, dated 1986).

What was measured:
[1] = tested on: Durch Ethanol verursachte Magengeschwüre; assay: Ethanol-induced gastric ulcers in fasted female rats; type: in vivo, Ratten; details: for ED50: Rattus norvegicus, po, 30 min before 0,7 ml absolute ethanol, dose protecting 50 % of the animals
Description: (§1) Die mucoprotektive Wirkung auf den Gastrointestinaltrakt verschiedener Verbindungen wurde im Vergleich zu dem bekannten Antiulcusmittel Carbenoxolone an weiblichen Ratten getestet, die für 24 Stunden vor Beginn des Tests fasteten. Diese Tiere wurden den folgenden Tests unterworfen:
(§2) Gruppen von 10 Ratten erhielten abgestufte Dosen der zu untersuchenden Verbindungen oral mittels Schlundsonde; die Verbindungen waren in 0,2 % Methocel suspendiert. Nach 30 Minuten erhielten die Tiere 0,7 ml absolutes Ethanol. 30 Minuten später wurden die Tiere getötet, der Magen entfernt, entlang der großen Curvatur geöffnet und von einem neutralen Beobachter untersucht. Einem Magengeschwür entsprechende Schädigungen wurden auch nach ihrer Schwere beurteilt, aber ihre Häufigkeit (in %) diente als Basis für die Berechnung des prozentualen Schutzes. Die ED50 ist diejenige Dosis einer Verbindung, die 50 % der Tiere schützt; sie wird ausgedrückt durch die Relation Schutz:Dosis.

[2] = tested on: Durch Natronlauge verursachte Magengeschwüre; assay: Sodium hydroxide (0,2 N)-induced gastric ulcers in fasted female rats; type: in vivo, Ratten; details: for ED50: Rattus norvegicus, po, 1 h, p.o., 0,2 N sodium hydroxide as ulcerogen, animals killed 60 min after it
Description: as §1, §2
Der Test verlief in gleicher Weise wie der unter 1. beschriebene. Anstelle von Ethanol wurde 0,2 N Natronlauge als Ulcus verursachendes Agens gewählt und die Tiere 60 Minuten nach dessen Gabe getötet. Die ED50 wurde, wie oben angegeben, bestimmt.

[3] = tested on: Durch Ethanol verursachte Magengeschwüre bei Ratten, die mit Indomethacin und Acetylsalicylsäure vorbehandelt worden waren; assay: Ethanol-induced gastric ulcers in rats pretreated with indomethacin or acetylsalicylic acid (suppression of prostaglandin synthesis); type: in vivo; details: 30 mg/kg p.o.
Description: as §1, §2
Es ist bekannt, daß Prostaglandine einen cytoprotektiven Effekt haben. Weiter ist bekannt, daß Prostaglandine eine antiulcerogene Wirkung haben. Durch eine Hemmung der Prostaglandin-Biosynthese, z.B. durch Acetylsalicylsäure oder Indomethacin, wird die antiulceregene Wirkung unterdrückt.
Gruppen von je 10 Ratten wurden entweder mit Indomethacin (3 mg/kg s.c.) oder Acetylsalicylsäure (10 mg/kg) vorbehandelt und nach 30 bis 60 Minuten die Testsubstanz verabreicht. Dann wurde ein durch Ethanol verursachtes Magengeschwür gesetzt und, wie unter 1. beschrieben, weitergearbeitet.

CC(CS)C(=O)N1CCc2sccc2C1C(=O)O [C, 1-(3-Mercapto-2-(R,S)-methylpropanoyl)-4,5,6,7-tetrahydro-thieno-[3,2-c]pyridin-4-(R,S)-carbonsäure]
ED50 [1]: 6 mg/kg

CC(CS)C(=O)N1CCC[C@@H]1C(=O)O (stereo partly drawn) [Captopril, D-2-Methyl-3-mercaptopropanoyl-L-prolin, reference compound]
% Schutz (% Tier ohne Magengeschwüre) ([1]; 30 mg/kg p.o.): 5%
% Schutz (% Tier ohne Magengeschwüre) ([1]; 55 mg/kg p.o.): 30%
% Schutz (% Tier ohne Magengeschwüre) ([1]; 100 mg/kg p.o.): 70%
ED50 [1]: 74.4 mg/kg

CC1(C)[C@@H](OC(=O)CCC(=O)O)CC[C@]2(C)[C@H]3C(=O)C=C4[C@@H]5C[C@@](C)(C(=O)O)CC[C@]5(C)CC[C@@]4(C)[C@]3(C)CC[C@@H]12 [Carbenoxolone, reference compound]
%Schutz-wirkung ([2]; 100 mg/kg p.o.): 33%
%Schutz-wirkung ([2]; 170 mg/kg p.o.): 70%
%Schutz-wirkung ([2]; 300 mg/kg p.o.): 80%
ED50 [2]: 132 mg/kg
% Schutz (% Tier ohne Magengeschwüre) ([1]; 30 mg/kg p.o.): 10%
% Schutz (% Tier ohne Magengeschwüre) ([1]; 100 mg/kg p.o.): 60%
% Schutz (% Tier ohne Magengeschwüre) ([1]; 300 mg/kg p.o.): 90%
ED50 [1]: 89 mg/kg

C[C@@H](CSC(C[N+](=O)[O-])c1ccccc1)C(=O)N1CCC[C@H]1C(=O)O (stereo partly drawn) [D, 1-[3-(1-Phenyl-2-nitro-äthylthio)-2-R-methylpropanoyl]-L-prolin]
ED50 [1]: 0.6 mg/kg

CCOC(=O)[C@H](CCc1ccccc1)N[C@@H](C)C(=O)N1CCc2ccsc2[C@H]1C(=O)O [E, N-[N-1-(S-Ethoxycarbonyl-3-phenylpropyl)-2-S-alanyl]-4,5,6,7-tetrahydro-thieno[2,3-c]pyridin-7-R-carbonsäure]
ED50 [1]: 12 mg/kg

CC(=O)SC[C@@H](C)C(=O)N1CCc2sccc2C1C(=O)O (stereo partly shown) [F]
ED50 [1]: 3 mg/kg

C[C@H](CS)C(=O)N1CCC[C@H]1C(=O)OCOC(=O)C(C)(C)C [G, 1-(3-Mercapto-Z-D-methylpropanoyl)-L-prolin-pivaloyloxymethylester]
%Schutz-wirkung ([2]; 3 mg/kg p.o.): 10%
%Schutz-wirkung ([2]; 10 mg/kg p.o.): 39%
%Schutz-wirkung ([2]; 17 mg/kg p.o.): 70%
%Schutz-wirkung ([2]; 30 mg/kg p.o.): 80%
ED50 [2]: 11.7 mg/kg
% Schutzwirkung ([3]; pretreatment: Acetylsalicylsäure 10 mg/kg p.o., 60 min before ethanol): 10%
% Schutzwirkung ([3]; pretreatment: Indomethacin 3 mg/kg s.c., 30 min before ethanol): 40%
% Schutzwirkung ([3]; pretreatment: saline (control)): 100%
% Schutz (% Tier ohne Magengeschwüre) ([1]; 3 mg/kg p.o.): 30%
% Schutz (% Tier ohne Magengeschwüre) ([1]; 10 mg/kg p.o.): 50%
% Schutz (% Tier ohne Magengeschwüre) ([1]; 30 mg/kg p.o.): 40%
ED50 [1]: 4 mg/kg
